Legend:
mouse MTHFR = target: T1, mouse MTHFR (Mus musculus, UniProt Q9WU20); assay: analytical size exclusion chromatography / DSF; format: binding
T1 sequence (Q9WU20 357-654): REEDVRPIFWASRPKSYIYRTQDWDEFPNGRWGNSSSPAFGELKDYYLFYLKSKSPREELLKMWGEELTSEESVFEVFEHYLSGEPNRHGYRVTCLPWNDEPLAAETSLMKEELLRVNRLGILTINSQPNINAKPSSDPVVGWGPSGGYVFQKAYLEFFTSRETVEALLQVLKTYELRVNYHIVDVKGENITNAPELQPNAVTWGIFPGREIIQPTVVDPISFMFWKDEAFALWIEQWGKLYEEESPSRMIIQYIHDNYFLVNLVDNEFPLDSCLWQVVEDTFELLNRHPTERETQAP

[1] = target: T2, 5,10-methylenetetrahydrofolate reductase (MTHFR) (Homo sapiens, UniProt P42898, A368L); assay: differential scanning fluorimetry; aSEC; format: binding
T2 construct: HsMTHFR348–656
T2 sequence (P42898 348-656 A368L): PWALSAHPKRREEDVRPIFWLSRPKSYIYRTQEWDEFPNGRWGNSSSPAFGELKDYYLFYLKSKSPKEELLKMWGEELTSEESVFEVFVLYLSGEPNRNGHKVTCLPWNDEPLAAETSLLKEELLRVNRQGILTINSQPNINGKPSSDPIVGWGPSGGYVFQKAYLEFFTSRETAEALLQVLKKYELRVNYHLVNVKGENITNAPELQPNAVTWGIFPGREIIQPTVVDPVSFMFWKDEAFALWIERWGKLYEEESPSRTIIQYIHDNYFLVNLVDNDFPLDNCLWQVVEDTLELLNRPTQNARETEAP

[2] = target: T3, 5,10-methylenetetrahydrofolate reductase (MTHFR) (Homo sapiens, UniProt P42898); assay: HPLC-based enzyme activity assay; also native MS, DSF and aSEC; format: biochemical; details: read-out: Inhibition (μM) / SAM Ki (95% CI)
T3 construct: HsMTHFR1–656 (phosphorylated, as purified)

Ki [2]	SMILES	analytical size exclusion chromatography / DSF (mouse MTHFR)	differential scanning fluorimetry; aSEC [1]
–	Nc1ncnc2c1ncn2[C@@H]1O[C@H](CSCC[C@H](N)C(=O)O)[C@@H](O)[C@H]1O [SAH, S-adenosylhomocysteine]	A similar pattern of results were observed when using purified recombinant mouse MTHFR of the same protein boundaries	–
2.7 µM	C[S+](CC[C@H](N)C(=O)[O-])C[C@H]1O[C@@H](n2cnc3c(N)ncnc32)[C@H](O)[C@@H]1O (stereo partly shown) [SAM, S-adenosylmethionine]	A similar pattern of results were observed when using purified recombinant mouse MTHFR of the same protein boundaries	p.A368L resulted in protein which retained the ability to bind SAM, but was less sensitive to change

Source: publication PMC5995969, “Structural basis for the regulation of human 5,10-methylenetetrahydrofolate reductase by phosphorylation and S-adenosylmethionine inhibition” (Nature Communications, 2018)
